According to US10729130B2, “Nematicidal compositions and methods of using them” (Eden Research plc, priority 2004, dated 2020):
Where “and” joins values, the source holds several entries; their conditions need not be identical. Equal values may be shown once.

Key:
[1] = test system: Saprophagous nematodes; test: Nematicidal activity of citral on Saprophagous nematodes (selectivity experiment); details: 250 ppm
Description: Living saprophagus nematodes move rapidly in water. The control used was the nematodes in water alone.
The figures given are for the percentage of nematodes found to be dead upon microscopic examination and are the average of 2 replicates.

[2] = Maximal terpene loading at high Baker's yeast particle levels (free terpene score); type: physicochemical; set-up: key to Free Terpene: +: “free terpene” refers to the visible presence of terpene in the centrifuged reaction mixture; −: The absence of free terpene indicates complete absorption of the terpene by the particles; details: for Free Terpene: 500 μl 250 mg/ml YP
Description: Samples were centrifuged at 14,000×g for 10 minutes and the appearance of free terpene floating on the aqueous layer was scored. The expression “free terpene” refers to the visible presence of terpene in the centrifuged reaction mixture. The absence of free terpene indicates complete absorption of the terpene by the YP. The highest volume of terpene absorbed by the YP, as evidenced by the absence of free terpene, was recorded as the maximal volume of absorbed terpene emulsion.

[3] = Maximal citral and L-carvone loading in Baker's yeast particles (free terpene score); type: physicochemical; set-up: key to Free Terpene: +: “free terpene” refers to the visible presence of terpene in the centrifuged reaction mixture; −: The absence of free terpene indicates complete absorption of the terpene by the particles; details: for Free Terpene: 500 μl 20 mg/ml YP, overnight room temperature
Description: Samples were centrifuged at 14,000×g for 10 minutes and the appearance of free terpene floating on the aqueous layer was scored. The expression “free terpene” refers to the visible presence of terpene in the centrifuged reaction mixture. The absence of free terpene indicates complete absorption of the terpene by the particles. The highest volume of terpene absorbed by the particles, as evidenced by the absence of free terpene, was recorded as the maximal volume of absorbed terpene emulsion.

[4] = Kinetics of terpene loading into various particles at room temperature or 37° C.; type: physicochemical; set-up: key: +: “free terpene” refers to the visible presence of terpene in the centrifuged reaction mixture; −: The absence of free terpene indicates complete absorption of the terpene by the particles
Description: 1% Tween-80 solution was prepared by sonicating 1 ml 10% Tween-80 in 10 ml water. • Baker's YP was prepared by mixing 5 g of bakers YP in 20 ml 1% Tween-80. • Nutrex™ YGP suspension was prepared by mixing 2 g Nutrex™ YGP in 20 ml 1% Tween-80. • SAF Mannan™ suspension was prepared by mixing 2 g SAF Mannan™ in 20 ml 1% Tween-80.
The reactions were incubated for 1, 3, 6, 9 and 24 hours at room temperature or 37° C. After incubation samples were centrifuged at 14,000×g for 10 minutes and the appearance of free terpene floating on the aqueous layer was scored. The highest volume of terpene absorbed by the particles as evidenced by the absence of free terpene was recorded as the volume of absorbed terpene emulsion. Colour of the encapsulated pellet was scored at 24 hours.

[5] = SAF Mannan loading of different terpenes and terpene mixtures; type: physicochemical; set-up: key to Free Terpene: +: “free terpene” refers to the visible presence of terpene in the centrifuged reaction mixture; −: The absence of free terpene indicates complete absorption of the terpene by the particles; key to Free Terpene: phase inversion remark: Inverted = Phase Inverted - solids floating on top - no free oil; W = white; Y = yellow; details: for Free Terpene: SAF Mannan 500 μl (250 mg/ml), overnight, room temperature; for Free Terpene: phase inversion remark: SAF Mannan 500 μl, second line of the Free Terpene cell
Description: Increasing volumes of terpene emulsion were mixed with 250 mg/ml Baker's YP or 250 mg/ml SAF Mannan™ overnight at room temperature as shown in Tables 27 and 28. Samples were centrifuged at 14,000×g for 10 minutes and the appearance of free terpene floating on the aqueous layer was scored. The highest volume of terpene emulsion absorbed by Baker's YP or SAF Mannan™ as evidenced by the absence of free terpene was recorded as the volume of absorbed terpene emulsion. Colour of encapsulated terpenes in the pellet was recorded.
Percentage loaded represents a ratio of the amount of terpene loaded to the amount of particle present (weight for weight).

[6] = test system: root-knot juveniles; test: Effect of citral alone and citral and thymol on root-knot nematode juveniles; type: in vivo; details: average of 2 replicates
Description: This was labelled 2500 ppm and was diluted to provide test solutions at 500, 250, 125 and 62.5 ppm.
This was marked 2500 ppm and diluted to provide test solutions at 500, 250, 125 and 62.5 ppm.
Control—Water was used as the control.
Nematode juveniles were collected in water and 0.1 to 0.15 ml added to each well of a plastic assay plate. 1.0 ml of the test solutions was added to each well. Observations were made microscopically after 24 and 48 hours as described in Example 4. […] Living nematodes move in an undulating, wave-like motion.
The results of two experiments are provided below in Tables 7 and 8.

## CC(C)=CCCC(C)=CC=O [Citral, citral]
[1]; 24 h
  % dead: 43% and 50%
[1]; 48 h
  % dead: 50% and 52%
[2]; Baker's YP 250 mg/ml
  terpene emulsion absorbed and encapsulated per 125 mg of YP: at least 75 μl
[2]; emulsion 15 μl, 1% Tween-80 485 μl
  Free Terpene: −
[2]; emulsion 37.5 μl, 1% Tween-80 462.5 μl
  Free Terpene: −
[2]; emulsion 75 μl, 1% Tween-80 425 μl
  Free Terpene: −
[2]; emulsion 112.5 μl, 1% Tween-80 387.5 μl
  Free Terpene: Sl+
[2]; emulsion 150 μl, 1% Tween-80 350 μl
  Free Terpene: +
[2]; emulsion 225 μl, 1% Tween-80 275 μl
  Free Terpene: +
[2]; emulsion 450 μl, 1% Tween-80 50 μl
  Free Terpene: +
[3]; Baker's YP 20 mg/ml
  terpene emulsion absorbed and encapsulated per 10 mg of YP: at least 5 μl
[3]; emulsion 0.5 μl, 10% Tween-80 500 μl
  Free Terpene: −
[3]; emulsion 1.65 μl, 10% Tween-80 500 μl
  Free Terpene: −
[3]; emulsion 5 μl, 10% Tween-80 495 μl
  Free Terpene: −
[3]; emulsion 50 μl, 10% Tween-80 450 μl
  Free Terpene: +
[3]; emulsion 165 μl, 10% Tween-80 335 μl
  Free Terpene: +
[3]; emulsion 500 μl, no Tween-80
  Free Terpene: +
[4]; 37 ° C., Bakers 250 mg/ml, emulsion 788 μl L-carvone or 525 μl Citral, 1 hr
  Free Terpene (hr): +
[4]; 37 ° C., Bakers 250 mg/ml, emulsion 788 μl L-carvone or 525 μl Citral, 3 hr
  Free Terpene (hr): −
[4]; 37 ° C., Bakers 250 mg/ml, emulsion 788 μl L-carvone or 525 μl Citral, 6 hr
  Free Terpene (hr): −
[4]; 37 ° C., Bakers 250 mg/ml, emulsion 788 μl L-carvone or 525 μl Citral, 9 hr
  Free Terpene (hr): −
[4]; 37 ° C., Bakers 250 mg/ml, emulsion 788 μl L-carvone or 525 μl Citral, 24 hr
  Free Terpene (hr): −
[4]; 37 ° C., Nutrex 100 mg/ml, emulsion 1050 μl L-carvone or 788 μl Citral, 1 hr
  Free Terpene (hr): +
[4]; 37 ° C., Nutrex 100 mg/ml, emulsion 1050 μl L-carvone or 788 μl Citral, 3 hr
  Free Terpene (hr): −
[4]; 37 ° C., Nutrex 100 mg/ml, emulsion 1050 μl L-carvone or 788 μl Citral, 6 hr
  Free Terpene (hr): −
[4]; 37 ° C., Nutrex 100 mg/ml, emulsion 1050 μl L-carvone or 788 μl Citral, 9 hr
  Free Terpene (hr): −
[4]; 37 ° C., Nutrex 100 mg/ml, emulsion 1050 μl L-carvone or 788 μl Citral, 24 hr
  Free Terpene (hr): −
[4]; 37 ° C., SAF 100 mg/ml, emulsion 1050 μl L-carvone or 788 μl Citral, 1 hr
  Free Terpene (hr): +
[4]; 37 ° C., SAF 100 mg/ml, emulsion 1050 μl L-carvone or 788 μl Citral, 3 hr
  Free Terpene (hr): −
[4]; 37 ° C., SAF 100 mg/ml, emulsion 1050 μl L-carvone or 788 μl Citral, 6 hr
  Free Terpene (hr): −
[4]; 37 ° C., SAF 100 mg/ml, emulsion 1050 μl L-carvone or 788 μl Citral, 9 hr
  Free Terpene (hr): −
[4]; 37 ° C., SAF 100 mg/ml, emulsion 1050 μl L-carvone or 788 μl Citral, 24 hr
  Free Terpene (hr): −
[4]; Rt, Bakers 250 mg/ml, emulsion 788 μl L-carvone or 525 μl Citral, 1 hr
  Free Terpene (hr): +
[4]; Rt, Bakers 250 mg/ml, emulsion 788 μl L-carvone or 525 μl Citral, 3 hr
  Free Terpene (hr): −
[4]; Rt, Bakers 250 mg/ml, emulsion 788 μl L-carvone or 525 μl Citral, 6 hr
  Free Terpene (hr): −
[4]; Rt, Bakers 250 mg/ml, emulsion 788 μl L-carvone or 525 μl Citral, 9 hr
  Free Terpene (hr): −
[4]; Rt, Bakers 250 mg/ml, emulsion 788 μl L-carvone or 525 μl Citral, 24 hr
  Free Terpene (hr): −
[4]; Rt, Nutrex 100 mg/ml, emulsion 1050 μl L-carvone or 788 μl Citral, 1 hr
  Free Terpene (hr): +
[4]; Rt, Nutrex 100 mg/ml, emulsion 1050 μl L-carvone or 788 μl Citral, 3 hr
  Free Terpene (hr): −
[4]; Rt, Nutrex 100 mg/ml, emulsion 1050 μl L-carvone or 788 μl Citral, 6 hr
  Free Terpene (hr): −
[4]; Rt, Nutrex 100 mg/ml, emulsion 1050 μl L-carvone or 788 μl Citral, 9 hr
  Free Terpene (hr): −
[4]; Rt, Nutrex 100 mg/ml, emulsion 1050 μl L-carvone or 788 μl Citral, 24 hr
  Free Terpene (hr): −
[4]; Rt, SAF 100 mg/ml, emulsion 1050 μl L-carvone or 788 μl Citral, 1 hr
  Free Terpene (hr): +
[4]; Rt, SAF 100 mg/ml, emulsion 1050 μl L-carvone or 788 μl Citral, 3 hr
  Free Terpene (hr): −
[4]; Rt, SAF 100 mg/ml, emulsion 1050 μl L-carvone or 788 μl Citral, 6 hr
  Free Terpene (hr): −
[4]; Rt, SAF 100 mg/ml, emulsion 1050 μl L-carvone or 788 μl Citral, 9 hr
  Free Terpene (hr): −
[4]; Rt, SAF 100 mg/ml, emulsion 1050 μl L-carvone or 788 μl Citral, 24 hr
  Free Terpene (hr): −
[5]; terpene emulsion vol 15, 1% Tween-80 485 μl
  Free Terpene: −
[5]; terpene emulsion vol 37.5, 1% Tween-80 462.5 μl
  Free Terpene: −
[5]; terpene emulsion vol 75, 1% Tween-80 425 μl
  Free Terpene: −
[5]; terpene emulsion vol 112.5, 1% Tween-80 387.5 μl
  Free Terpene: −
[5]; terpene emulsion vol 225, 1% Tween-80 275 μl
  Free Terpene: +
[5]; terpene emulsion vol 450, 1% Tween-80 50 μl
  Free Terpene: +
[5]; terpene emulsion vol 150
  Free Terpene: phase inversion remark: Inverted
[5]; terpene emulsion vol 225
  Free Terpene: phase inversion remark: Inverted
[5]; terpene emulsion vol 450
  Free Terpene: phase inversion remark: Inverted
[5]; approximate maximal loading, volume of terpene emulsion absorbed by SAF Mannan
  Vol. loaded (maximal terpene loading in SAF Mannan): 150 µL
[5]; ratio of amount of terpene loaded to amount of particle present (weight for weight)
  % Loaded w/w (maximal terpene loading in SAF Mannan): 133% w/w
[6]; Table 7 experiment, 125 ppm, 24 h
  percentage of nematodes dead: 100%
[6]; Table 7 experiment, 125 ppm, 48 h
  percentage of nematodes dead: 24%
[6]; Table 7 experiment, 250 ppm, 24 h
  percentage of nematodes dead: 100%
[6]; Table 7 experiment, 250 ppm, 48 h
  percentage of nematodes dead: 91%
[6]; Table 7 experiment, 500 ppm, 24 h
  percentage of nematodes dead: 98%
[6]; Table 7 experiment, 500 ppm, 48 h
  percentage of nematodes dead: 97%
[6]; Table 8 experiment, 62.5 ppm, 24 h
  percentage of nematodes dead: 98%
[6]; Table 8 experiment, 125 ppm, 24 h
  percentage of nematodes dead: 94%
[6]; Table 8 experiment, 250 ppm, 24 h
  percentage of nematodes dead: 94%
